Results as given in patent US20040044304A1, “Local drug delivery using photosensitizer-mediated and electromagnetic radiation enhanced vascular permeability” (priority 2002, published 2004).
Like-named read-outs stand apart in the source and are kept apart here.

Experiments:
[1] = Molar extinction coefficient of the photosensitizer; type: physicochemical; design: Molar extinction coefficient: unit not given here; conditions: for Peak extinction coefficient: in M-1 cm-1 (unit assumed)
[2] = test system: vascular structures in the dorsal window chamber; type: in vivo, mice of strain C3H; conditions: MRV6401 0.05 mg/kg i.v., red 660 nm-680 nm
Text: Male mice of strain C3H (sourced from The Jackson Laboratory, 600 Main Street, Bar Harbor, Me. 04609, USA) weighing between 28-30 grams were surgically implanted with titanium back-pack window chambers in a similar manner to that described in Example 2. A chamber was considered suitable for subsequent studies if microscopic examination of the preparation met the same criteria as those described in Example 2. The intra-vital microscopic studies were undertaken on unsedated animals held in the same Plexiglass tube assembly as that described in Example 2. The intra-vital microscopy was also performed using the same Leitz Dialux 22 microscope fitted with the same objective lenses, and mercury lamp trans- and epi-illumination sources. However, for the studies described in Example 3, the irradiation source was not a DD4 laser, but rather, activation of the photosensitizers was undertaken using narrow band filtered light from the mercury lamp epi-illumination source. Two different wavelength bands were used to activate the photosensitizers, namely green or red light (see Table 5 below). These wavelengths were obtained by use of filter cubes placed in a Leitz Ploemopak illumination system (NcBain Instruments, Inc., 9601 […] Avenue, Chatsworth, Calif., 91311, USA) fitted to the Leitz Dialux 22 microscope. For activation using green light epi-illumination (530 nm-560 nm) the BP 530-560 band pass excitation filter of the Leitz Ploemopak N2 cube (Cat. No. 513-609, E. Leitz Inc., Rockleigh, N.J., 07647, USA) was used. For activation using red light epi-illumination (660 nm-680 nm) a 670DF20 band pass filter (Cat. No., XF1028, Omega Optical Co., Brattleboro, Vt., 05302, USA) fitted in a Leitz Ploemopak cube was used. In all cases, the activation of the photosensitizer was performed in a defined region that was smaller than the total field of tissue contained within the window chamber. The total mouse dorsal tissue contained within the window chambers was a circle of 1.0 cm diameter, corresponding to a total area of approximately 0.785 cm^2. The illumination field of the activating light was a circle of 0.225 cm diameter, corresponding to a total area of approximately 0.040 cm^2. Thus, approximately 5% of the total area of the chamber was directly illuminated. Mice bearing a dorsal window chamber were placed in the Plexiglass restrainer on the microscope stage for pre-treatment evaluation of the vascular structures. Prior to photosensitizer administration, the architecture of the vascular structures in the entire window chamber in all mice was examined using 410 nm filtered blue light from the mercury trans-illumination source of the intra-vital microscope, and the images which were generated were recorded on video tape for subsequent evaluation. The methods for imaging and recording were as described in Example 2. Briefly, the imaging source was a […] mercury arc lamp (Type 307-143.004 from Ernst Leitz Wetzlar GmBH, Germany) which was powered by an HBO 100 power supply (LEP Ltd., Scarsdale, N.Y.). The output from this source was filtered using a #H43157 interference filter (Edmund Scientific, 101 East Gloucester Pike, Barrington, N.J., 08007-1380), to produce a beam of 410 nm light. Typically, the power density of the imaging light was less than 0.6 […]^2. Two or three fields in each chamber were designated as fields of interest and their location recorded for post-treatment evaluation. These fields were chosen such that they were not adjacent to each other, and one of these fields was chosen so that it was within the region of the chamber that was to receive the activating light illumination. Following identification, recording and designation of the fields of interest, mice were injected with either the photosensitizer […] Medical Technologies, 336 Bollay Drive, Santa Barbara, Calif., 93117) formulated in egg yolk phospholipid ([…] Polar Lipids, Inc., 700 Industrial Park Avenue, Alabaster, Ala., 35007), the photosensitizer […]

[3] = animal #10, 12 J/cm^2, probe 6 min post light irradiation
[4] = animal #13, 8 J/cm^2, probe administered 24 hr post light irradiation

SMILES	Peak extinction coefficient ([1]; at 437 nm)	Peak extinction coefficient ([1]; at 661 nm)	Absorbance at activation wavelength relative to peak spectral absorbance ([1]; green 530 nm-560 nm)	Molar extinction coefficient ([1]; green wavelength band 530 nm-560 nm)	TRITC-Dextran in tissue and cells in regions outside the treatment field at 24 hr time point ([2]; animal #8, 12 J/cm^2, 155 kD probe 10 min post light irradiation)	Leakage of 155 kD TRITC-Dextran in the treatment field at 24 hr time point ([2]; animal #8, 12 J/cm^2, probe 10 min post light irradiation)	Leakage of secondary probe 150 kD FITC-Dextran from vessels in the treatment field, 20 min post probe ([2]; animal #8, 12 J/cm^2, probe administered 24 hr post light irradiation)	Leakage of secondary probe 150 kD FITC-Dextran from vessels outside the treatment field, 20 min post probe ([2]; animal #8, 12 J/cm^2, probe administered 24 hr post light irradiation, 0.05 mg/kg)	150 kD FITC-Dextran in tissue and cells surrounding vessels (regions 1 treated and 3) at 24 hr ([2]; animal #10, 12 J/cm^2)	Leakage of 150 kD FITC-Dextran from the treated vessels at 1 hr post probe administration [2, 3]	Leakage of 150 kD FITC-Dextran from vessels outside the treatment field at 1 hr post probe administration [2, 3]	2,000 kD FITC-Dextran leakage in tissue and cells outside the treatment field at 24 hr ([2]; animal #11, 12 J/cm^2)	Leakage of 2,000 kD FITC-Dextran from vessels outside the treatment field at 1 hr ([2]; animal #11, 12 J/cm^2, probe 19 min post light irradiation)	Leakage of 2,000 kD FITC-Dextran from vessels outside the treatment field at 1 hr ([2]; animal #12, 8 J/cm^2, probe 3 min post light irradiation)	Leakage of secondary probe 155 kD TRITC-Dextran from vessels in the treatment field ([2]; animal #12, 8 J/cm^2, probe administered 24 hr post light irradiation)	Leakage of secondary probe 2,000 kD FITC-Dextran from vessels in the treatment field [2, 4]	Leakage of secondary probe 2,000 kD FITC-Dextran from vessels outside the treatment field [2, 4]
CCOC(=O)C1=Cc2c3nc(cc4nc(cc5[n-]c(cc6[n-]c2c(C)c6CC)c(C)c5CC)C(C)=C4CC)[C@@H](C)[C@]13CC.[Cl-].[Cl-].[Sn] (racemic) [SnET2, tin ethyl etiopurpurin]	165,456	52,552	less than 5%	4312	–	–	–	–	–	–	–	–	–	–	–	–	–
C=Cc1c(C)c2[n]3c1=CC1=NC(=Cc4c(C)c5c([n]4[In]3[Cl])C(=C3N=C(C=2)[C@@H](C)[C@@H]3CCC(=O)OC)CC5=O)C(CC)=C1C [MV6401, indium methyl pyropheophorbide]	–	–	–	–	no significant fluorescence from TRITC-Dextran	significant leakage in region 2	leakage of FITC from vessels in the treated region 2	some minimal leakage from the vessels in region 1	pattern was apparent at the 2 hr time point, and at the 24 hr time point there was FITC-Dextran present at high levels	with significant leakage apparent	from the treated vessels in region 1, some minor leakage from vessels in region 3 and no leakage from vessels in region	FITC-Dextran uptake in tissues and cells in this region. The tissue and cells in regions 2 and 3 showed some minor	no leakage from vessels in regions 2 and 3	no leakage from vessels in regions 2 and 3	significant on-going leakage from vessels in region 1	significant on-going leakage from vessels in region 1	no evidence of on-going leakage
